Converted amounts (≈) assume the structure as drawn. The source made the active and inactive calls. No cut-off for these calls is given here.
Assays:
[1] = biological target: T1, Retinoic acid receptor beta (Homo sapiens) (UniProt P10826); experiment: Efficacy against RARbeta2
T1 sequence (whole entry): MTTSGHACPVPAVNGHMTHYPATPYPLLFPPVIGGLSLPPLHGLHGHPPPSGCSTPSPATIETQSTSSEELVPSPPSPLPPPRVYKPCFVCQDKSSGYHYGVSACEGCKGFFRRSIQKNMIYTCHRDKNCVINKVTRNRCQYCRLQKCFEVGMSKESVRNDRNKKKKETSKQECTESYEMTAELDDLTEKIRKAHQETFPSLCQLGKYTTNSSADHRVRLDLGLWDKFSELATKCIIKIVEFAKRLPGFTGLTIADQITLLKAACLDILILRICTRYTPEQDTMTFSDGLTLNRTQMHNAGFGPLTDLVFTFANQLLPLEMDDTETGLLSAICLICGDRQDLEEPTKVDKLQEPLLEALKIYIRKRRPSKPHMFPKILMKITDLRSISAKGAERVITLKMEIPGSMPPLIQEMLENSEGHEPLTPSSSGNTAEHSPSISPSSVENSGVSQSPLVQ

[2] = biological target: T2, Retinoic acid receptor beta (Homo sapiens, UniProt P10826); experiment: Transcriptional activity against RARbeta2; format: functional
T2 sequence (P10826 whole entry): T1 sequence (whole entry)

[3] = biological target: T2, Retinoic acid receptor beta; experiment: Transcriptional activity against RARbeta1; format: functional
[4] = biological target: T1, Retinoic acid receptor beta (Homo sapiens); experiment: Efficacy against RARbeta1
[5] = Oral bioavailability in Rats; format: ADME, organism-based; settings: rat, in vivo
[6] = Partition coefficient of the compound, log P; format: physicochemical; settings: octanol/water
[7] = Solubility at pH 7.4; format: physicochemical; settings: buffer
[8] = Distribution coefficient of the compound, log D; format: physicochemical; settings: octanol/water
MCF7 = experiment: Inhibition of DNA synthesis in MCF7 cells by [3H]thymidine incorporation; format: functional, cell-based; settings: Homo sapiens

Efficacy [1] | EC50 [2] | EC50 [3] | Efficacy [4] | bioavailability [5] | logP [6] | solubility [7] | logD [8] | SMILES | Activity (MCF7)
36% | 63.1 nM | > 10000 nM | inactive |  |  |  |  | CCCCc1ccc(-c2ccc(C(=O)O)cc2)cc1 | 
inactive |  |  | inactive |  |  |  |  | CCCc1ccc(-c2ccc(C(=O)O)cc2)cc1 | 
37% | 50.1 nM | > 10000 nM | inactive |  |  |  |  | CCCCCCc1ccc(-c2ccc(C(=O)O)cc2)cc1 | 
96% |  |  | 40% | 52% | 5.1 | 4800 µg/mL (≈ 13.6 mM) | 1.4 | CCCCOCCOc1nc(-c2ccc(C(=O)O)c(F)c2)sc1C | 
inactive |  |  | inactive |  |  |  |  | CCc1ccc(-c2ccc(C(=O)O)cc2)cc1 | 
92% | 126 nM | > 10000 nM | 31% |  |  | < 1 µg/mL |  | CCCCCCCCc1ccc(-c2ccc(C(=O)O)cc2)cc1 | Active
38% | 15.8 nM | > 10000 nM | inactive |  |  |  |  | CCCCCc1ccc(-c2ccc(C(=O)O)cc2)cc1 | 
64% | 25.1 nM | > 10000 nM | inactive |  |  |  |  | CCCCCCCc1ccc(-c2ccc(C(=O)O)cc2)cc1 | 
100% |  |  |  |  |  |  |  | CC1(C)CCC(C)(C)c2cc(C(=O)Nc3ccc(C(=O)O)cc3)ccc21 | 
100% | 15.8 nM | 316 nM | 58% |  |  |  |  | CCCCCCCCCc1ccc(-c2ccc(C(=O)O)cc2)cc1 | 

Source: ChEMBL document CHEMBL1141226, “Discovery of a potent, orally available, and isoform-selective retinoic acid beta2 receptor agonist” (J Med Chem, 2005)
